Laboratory results taken from paper PMC3422259, “Additive Mixture Effects of Estrogenic Chemicals in Human Cell-Based Assays Can Be Influenced by Inclusion of Chemicals with Differing Effect Profiles” (PLoS ONE, 2012).
“Also recorded” adds a separate entry of the source. Like-named read-outs stand apart in the source and are kept apart here.

Tests used:
MCF-7 cells [1] = assay: Estrogenicity assay, mitogenic endpoint (ESCREEN); settings: for Signs of estrogenicity (in words): chemical screened as potential modulator, tested alone
Procedure: The ESCREEN assay was performed using cloned MCF-7 cells (described in [6], gifted from A. Soto, Boston) and the established ESCREEN method was followed using an adapted 96-well format. Cells were cultured in DMEM (5% FCS). For experiments, cells were seeded in clear polystyrene 96 well plates at a density of 2,500 cells/well and allowed to attach for 24 hours before washing with rinse media (phenol red-free DMEM, no supplements). […] Test chemicals were dissolved in ethanol to give stock solutions of millimolar concentrations. Test and control solutions were diluted prior to application in dosing media (phenol red free DMEM, 10% charcoal-dextran stripped FCS). The final concentration of ethanol was 0.5% in test and control wells. […] At all stages, media removal from cells was carried out gently and in a controlled fashion by use of an electronic multichannel pipette set to the lowest speed possible. Controls were run as eight replicate wells per plate and compounds were tested in a dilution series comprising eight concentrations, each concentration tested in two replicate wells per plate. The plate layout was designed to reduce variation due to evaporation and spreading of test chemicals, and had been previously optimised in the laboratory. After application of test solutions, plates were incubated for 120 hours before fixation with 10% trichloroacetic acid and sulforhodamine B (SRB) staining to measure protein and allow the indirect quantification of cell number.
Experiments were performed on different days meaning that results for different dilution series and different batches of the test chemicals were obtained on different days. Each single chemical was tested in three or more independent experiments. Use of normalisation meant that data from different experiments could be reliably combined and compared, as discussed previously. Data was expressed relative to the positive control, rather than as fold change from the vehicle response, for two reasons.
Results from regression analysis for each test chemicals were used to predict the CA effect for fixed-ratio mixtures designed on 1) equi-effective concentrations (balanced design), 2) possible human serum levels (non-balanced design). The original mathematical formulation of CA that defines for a mixture composed of n components with concentration c1 of the first component, c2 of the second component, and cn for the n-th component a combination effect X is [drawing 1] (1) Here, ECX1, ECX1 …, ECXn are the concentrations of the individual components that on their own produce the same effect X as the mixture, [15] The quotients cn/ECXn are called toxic units and scale all compounds in the mixture relative to their toxicity. They can be interpreted as the contribution of the compound to the total mixture concentration that is expected to produce the mixture effect X. According to equation 1, a mixture effect for a pre-defined effect level X is described only implicitly. However, if the individual concentrations ci are expressed as relative fractions pi to the total mixture concentration ECxMix, then equation 1 can be re-arranged to [drawing 2] (2) which allows the direct calculation of the mixture concentration that is expected to produce the mixture effect X. To form a prediction curve, equation 2 is iterated through for various effect levels resulting in sets of effects and their associated predicted mixture concentration which are then plotted to produce a graph of the effect prediction.
Both equations 1 and 2 require knowledge of the concentration of each mixture component that on its own produces the effect magnitude under consideration. For this reason, these equations cannot be used for predicting mixture effects that exceed the maximal effect of the least efficacious component, because those effect concentrations cannot be defined.

MCF-7 cells [2] = assay: Modulation studies (ESCREEN only): effect of potential modulators on the response evoked by a reference mixture of estrogens (REFmix); assay type: cell-based, human; settings: for Modulation of the REFmix effect (in words) / Concentration at which suppression of the ESCREEN response to REFmix began: ESCREEN; for Observed modulation: ESCREEN response to REFmix (Mixture 3d, ca. 50% effect), screening, one experiment; for Concentration at which suppression of the ESCREEN response to REFmix began: individual modulator screening
Description: Modulation studies comprised screening of individual modulators in low power experiments accompanied by parallel testing of an equimolar mixture of all modulators. This combination of low power screening and mixture testing provides the opportunity to assess a high number of chemicals (16 in this case) without a prohibitive amount of experimental effort. In this case the effects of 16 modulators could be evaluated using a total of 19 experimental plates (16 for screening and 3 for mixture testing).
To normalize for small changes in the absolute value of the positive control and the control response to the selected REFmix concentration, the response evoked by the REFmix control on each plate was defined as the 50% effect and all modulator study results are normalized to that value.
A mixture of modulators (MODmix) was also tested and was composed with a fixed ratio of equimolar concentrations, since the activity of each modulator was not known at the time of designing the mixture.
In these modulator studies, we examined 16 single chemicals (listed in Table 7) and an equimolar mixture of all 16 components for their ability to modulate the effects of a reference mixture (REFmix) which contained 14 food additives and contaminants (Table 1, Mixture 3d). […] Single chemicals were tested individually in single experiments (screening) and then a mixture composed using a fixed ratio of equal molarities was subjected to repeated testing.
Figure 5 Results of modulation studies. […] Experimental results are shown as grey circles representing each replicate (duplicate testing within the assay) and obtained in three independent (A) or one (B–Q) experiment (s). Experimental results were normalized by setting the value observed for the REFmix alone, the concentration of which was selected to evoke a […] of ca. 50%, to 0.5. The positive control values (black circles, eight replicates per experimental plate, 25 nM estradiol) are indicated adjacent to the y-axis. […] A black line indicates a LOESS spline fit to the data (A–Q) and a grey line indicates linear regression fit to the data for individual modulators (B–Q). A vertical dotted line is drawn at a mixture concentration of 1.6 µM (A) or at the concentration of each modulator present at that mixture concentration (0.1 uM, B–Q). Visual inspection of the individual modulator results (B–Q) was used to identify possible modulation, i.e. when the experimental data appears to deviate from the linear regression, or when the linear regression is not horizontal, and when the magnitude of the modulation is outside the variation expected in the assay.

SMILES	Signs of toxicity (in words) (MCF-7 cells [1]; ESCREEN)	Signs of estrogenicity (in words) (MCF-7 cells [1]; ESCREEN)	Modulation of the REFmix effect (in words) (MCF-7 cells [2])	Observed modulation (MCF-7 cells [2])	Concentration at which suppression of the ESCREEN response to REFmix began (MCF-7 cells [2])	Suppression of the REFmix effect (MCF-7 cells [2]; at 10 µM) [%]	Signs of estrogenicity: Active at concentration (MCF-7 cells [1]; ESCREEN, ‘Active’ = positive signal clearly distinguishable from assay variability and noise)	Suppression of the ESCREEN response to REFmix (MCF-7 cells [2]; at 100 nM, plateau at that level up to 10 µM) [%]	Signs of toxicity (in words) (MCF-7 cells [1])
COc1ccc(O)c(C(C)(C)C)c1 [BHA, Butylated hydroxyl anisole]	None	None	possible negative modulation	Possible negative	–	–	–	–	–
Cc1cc(C(C)(C)C)c(O)c(C(C)(C)C)c1 [BHT, Butylated hydroxytoluene]	None	None	possible negative modulation	Possible negative	–	–	–	–	–
[Cl][Cd][Cl] [CdCl2, Cadmium chloride]	–	None	clear negative modulation; also recorded: showed negative modulation	Clear negative	around 10 nM	80	–	–	–
Cc1cnc2ccc3c(nc(N)n3C)c2n1 [MeIQx, 2-Amino-3,8-dimethyl imidazo [4,5-f] quinoxaline]	None	None	no indication of negative modulation	None	–	–	–	–	–
Clc1ccc(-c2ccccc2Cl)cc1 [PCB #8, 2,4′-dichlorobiphenyl (PCB #8)]	None	None	no indication of negative modulation	None	–	–	–	–	–
Clc1ccc(-c2cc(Cl)c(Cl)c(Cl)c2)cc1Cl [PCB #126, 3,3′,4,4′,5-pentachlorobiphenyl (PCB #126)]	None	–	clear negative modulation	Clear negative	1–10 nM and around 10 nM	–	Active at 10 µM or higher	50	–
Clc1cc(Cl)c(-c2cc(Cl)c(Cl)cc2Cl)cc1Cl [PCB #153, 2,2′,4,4′,5,5′-hexachloro biphenyl (PCB #153)]	None	None	no indication of negative modulation	None	–	–	–	–	–
Clc1cc(Cl)c(-c2cc(Cl)c(Cl)c(Cl)c2Cl)cc1Cl [PCB #180, 2,2′,3,4,4′,5,5′-heptachloro biphenyl (PCB #180)]	–	None	no indication of negative modulation	None	–	–	–	–	None
O=[N+]([O-])[O-].O=[N+]([O-])[O-].[Pb+2] [Pb(NO3)2, Lead nitrate]	None	None	possible negative modulation	Possible negative	–	–	–	–	–
Cn1c(N)nc2ncc(-c3ccccc3)cc21 [PhIP, 2-amino-1-methyl-6-phenylimidazo [4,5-b] pyridine]	None	None	possible negative modulation	Possible negative	–	–	–	–	–
